We go through 15 molecules from ChEMBL document CHEMBL1201862, “PubChem BioAssay data set” (2004).

Experiment in all cases: NCI anticancer screen, dose series, 48 h
Test [1] has as its system CAKI-1.
Test [2] relates to DMS-273.
Test [3] relates to KM-20L2.
The subject of test [4] is KM12.
In test [5] the test system is M19-MEL.
The test system of test [6] is NCI-H23.
Test [7] concerns RPMI-8226.
For test [8], the system named is SF-268.
The test system of test [9] is SK-OV-3.
Test [10] relates to SN12C.
For test [11], the system named is SNB-19.
In test [12] the test system is SW-620.
The subject of test [13] is U-251.
Test [14] relates to UO-31.
Test [15] has as its system SF-539.

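1) Cells in 96-well plates. 2) Compound, 48 h, 5 concentrations. 3) Linear interpolation between surrounding doses. 4) Unreached endpoint = highest concentration. GI50 = concentration required for 50% inhibition of growth.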 Active and inactive are the calls of the source. Cut-off read from the data, not from the text of the source: active = GI50 up to about 1.1 µM and inactive = higher.

In the case of `CC(=O)c1cccc(C)c1C(=O)O`, the GI50 in test [1], in [2], in test [3], in test [4], in test [5] and in [6] was > 100 µM (inactive) in each case. Further, the GI50 in [7], in [8], in [9], in test [10], in test [11] and in [12] was > 100 µM (inactive) each time. Further, the GI50 in test [13] and in [14] was > 100 µM (inactive) throughout.
As for `Cc1cc(C)c2c(c1)CN1CN2Cc2cc(C)cc(C)c21`, the GI50 in [1] was 34.1 µM (inactive); in [2] it was 18.9 µM (inactive); in [4], 18.2 µM (inactive); in test [5], 23 µM (inactive); in test [6], 20.8 µM (inactive); in [7], 19.9 µM (inactive). Further, the GI50 in test [8] is 31.6 µM (inactive); in test [15] it was > 10 µM (inactive); in [9], 27.8 µM (inactive); in test [10] it was 16.9 µM (inactive); in [11], < 0.01 µM (active); in test [12] it was 31.5 µM (inactive). Besides, the GI50 in test [13] is 17.5 µM (inactive); in test [14], 24.4 µM (inactive).
In the case of `Cc1cc(=O)n(-c2c(C)cccc2Cl)c(/C=C(\O)c2ccncc2)n1`, the GI50 was > 100 µM (inactive) in [1]; > 100 µM (inactive) in [2]; > 100 µM (inactive) in [3]; 48.5 µM (inactive) in [4]; > 100 µM (inactive) in [6]; > 100 µM (inactive) in [8]. The GI50 in test [15], in test [9], in test [10], in test [11], in test [12] and in test [13] was > 100 µM (inactive) throughout. The GI50 in test [14] was 35.3 µM (inactive).
On to `CCOC(=O)C(=O)Nc1ccccc1C`, for which the GI50 in test [1], in test [3], in test [5], in test [6], in [7] and in test [8] was > 100 µM (inactive) each time. For the same molecule, the GI50 in [15], in test [9], in test [10], in test [11], in test [12] and in test [13] was > 100 µM (inactive) throughout. Moreover, in test [14], the GI50 is > 100 µM (inactive).
On to `CCCCOC(=O)/C(CC(=O)C=C(C)C)=N\NS(=O)(=O)c1ccc(C)cc1`, for which the GI50 in test [1], in test [3], in [4], in test [5], in [6] and in test [7] was > 100 µM (inactive) each time. Besides, the GI50 in test [8], in [15], in [9], in [10], in test [11] and in [13] was > 100 µM (inactive) each time. For the same molecule, the GI50 in [14] was > 100 µM (inactive).
Consider `O=C(OCc1ccccc1)c1ccccc1-c1c2ccc(=O)cc-2oc2cc(OCc3ccccc3)ccc12`, for which the GI50 in test [1] is 5.22 µM (inactive); in test [2], 7.03 µM (inactive); in test [3], 14.6 µM (inactive); in test [4], 12.7 µM (inactive); in test [5], 20.3 µM (inactive); in test [6] it was 10.4 µM (inactive). Further, the GI50 in test [7] was 5.48 µM (inactive); in [8], 14.1 µM (inactive); in [15], 13.6 µM (inactive); in test [10], 16.9 µM (inactive); in test [11], 35.1 µM (inactive); in test [12], 12.1 µM (inactive). Moreover, the GI50 in test [13] is 5.32 µM (inactive); in test [14], 6.12 µM (inactive).
Turning to `CC(C)c1ccc(Cc2ccc(C(C)C)c(NC(=O)C(=O)Cc3cnc4ccccc4n3)c2C(C)C)c(C(C)C)c1NC(=O)C(=O)Cc1cnc2ccccc2n1`, the GI50 in test [1] is 98.9 µM (inactive); in test [3], > 100 µM (inactive); in test [4], > 100 µM (inactive); in test [5] it was > 100 µM (inactive); in test [7], > 100 µM (inactive); in test [15], > 100 µM (inactive). Also, the GI50 in test [9] was > 100 µM (inactive); in [11], > 100 µM (inactive); in test [12], > 100 µM (inactive); in test [13] it was > 100 µM (inactive); in [14], 53 µM (inactive).
On to `Oc1nnc2c(-c3ccccc3)n[nH]c2n1`, for which the GI50 in test [1] is 45.5 µM (inactive); in test [2] it was > 100 µM (inactive); in test [3], > 100 µM (inactive); in test [4] it was > 100 µM (inactive); in test [6], > 100 µM (inactive); in [7], > 100 µM (inactive). Further, the GI50 in [8] was > 100 µM (inactive); in test [15] it was 15 µM (inactive); in test [10], > 100 µM (inactive); in [11], > 100 µM (inactive); in test [12], > 100 µM (inactive); in test [13], > 100 µM (inactive). Further, in test [14], the GI50 is > 100 µM (inactive).
In the case of `O=C(O)c1ccc(Nc2nc3nn(Cc4ccccc4)cc3c(=O)s2)cc1`, the GI50 in test [2], in test [3], in [4], in [5], in test [6] and in test [7] was > 100 µM (inactive) in each case. For the same molecule, the GI50 in [8], in [15], in test [9], in test [10], in test [11] and in [12] was > 100 µM (inactive) each time. Also, the GI50 in test [13] and in [14] was > 100 µM (inactive) each time.
With `OC(c1ccccc1Br)(c1ccccc1Br)C(F)(F)F`, the GI50 in test [1] is 48.1 µM (inactive); in [2], 20.3 µM (inactive); in test [3] it was 24.5 µM (inactive); in [4], 15.6 µM (inactive); in test [5], 23.9 µM (inactive); in [6], 27.9 µM (inactive). The GI50 in test [8] was 20.9 µM (inactive); in test [15] it was 33.2 µM (inactive); in [9] it was 36.5 µM (inactive); in [10], 19.1 µM (inactive); in test [11] it was > 10 µM (inactive); in test [12], 19.4 µM (inactive). Besides, the GI50 was 18.6 µM (inactive) in [13] and 26.7 µM (inactive) in [14].
Regarding `COC(=O)NC12CC3CC(CC(F)(C3)C1)C2`, the GI50 in [2], in test [3], in test [4], in test [5], in test [6] and in test [7] was > 100 µM (inactive) each time. The GI50 in [15], in test [9], in test [11], in test [12], in test [13] and in test [14] was > 100 µM (inactive) throughout.
In the case of `O=C(CCC(=O)Nc1cccc(Cl)c1)CC(=O)c1ccc(F)cc1`, the GI50 in test [1], in test [2], in test [3], in test [4], in [6] and in test [7] was > 100 µM (inactive) each time. For the same molecule, the GI50 in test [8], in test [15], in [9], in test [10], in test [11] and in test [12] was > 100 µM (inactive) each time. For the same molecule, the GI50 in test [14] is > 100 µM (inactive).
As for `CC(=O)O[C@]12CCCCCC1C1(O)C(O)CCCCC12` (some centres undefined), the GI50 in [2], in test [3], in [4], in [5], in [6] and in test [7] was > 100 µM (inactive) in each case. The GI50 in [8], in test [9], in test [10], in test [11], in [12] and in test [13] was > 100 µM (inactive) in each case. In addition, the GI50 in [14] is > 100 µM (inactive).
Take `CCOC(=O)[C@]12C3C=CC(C3)C1C(=O)C1OC12` (some centres undefined): the GI50 in test [1], in [2], in test [4], in [5], in test [6] and in test [7] was > 100 µM (inactive) each time. Moreover, the GI50 in test [8], in test [15], in test [9], in [10], in [11] and in test [12] was > 100 µM (inactive) in each case. Further, the GI50 in test [13] and in [14] was > 100 µM (inactive) throughout.
Take `O=c1c(O)c(-c2ccc(O)c(O)c2)oc2cc(O)ccc12` [FISETIN]: the GI50 is 11.5 µM (inactive) in test [2]; 27.2 µM (inactive) in [3]; 5.62 µM (inactive) in test [4]; 26 µM (inactive) in test [5]; 11.6 µM (inactive) in test [6]; 26.8 µM (inactive) in [7]. The GI50 in [8] was 24.9 µM (inactive); in [15], 12 µM (inactive); in [9] it was 9.66 µM (inactive); in [10], 20.8 µM (inactive); in test [11], 10.7 µM (inactive); in test [12], 23.8 µM (inactive). Besides, the figures for the GI50 in test [13] and in test [14] were 7.14 µM (inactive) and 14.5 µM (inactive), respectively.
